This passage reports IC50 results from ChEMBL document CHEMBL1136903, “Spiroimidazolidinone NPC1L1 inhibitors. 1: Discovery by 3D-similarity-based virtual screening” (Bioorg Med Chem Lett, 2009).

Experiment [1] addresses T1, Niemann-Pick C1-like 1 protein (Macaca mulatta, UniProt A0MJA5).
T1 sequence (A0MJA5 whole entry): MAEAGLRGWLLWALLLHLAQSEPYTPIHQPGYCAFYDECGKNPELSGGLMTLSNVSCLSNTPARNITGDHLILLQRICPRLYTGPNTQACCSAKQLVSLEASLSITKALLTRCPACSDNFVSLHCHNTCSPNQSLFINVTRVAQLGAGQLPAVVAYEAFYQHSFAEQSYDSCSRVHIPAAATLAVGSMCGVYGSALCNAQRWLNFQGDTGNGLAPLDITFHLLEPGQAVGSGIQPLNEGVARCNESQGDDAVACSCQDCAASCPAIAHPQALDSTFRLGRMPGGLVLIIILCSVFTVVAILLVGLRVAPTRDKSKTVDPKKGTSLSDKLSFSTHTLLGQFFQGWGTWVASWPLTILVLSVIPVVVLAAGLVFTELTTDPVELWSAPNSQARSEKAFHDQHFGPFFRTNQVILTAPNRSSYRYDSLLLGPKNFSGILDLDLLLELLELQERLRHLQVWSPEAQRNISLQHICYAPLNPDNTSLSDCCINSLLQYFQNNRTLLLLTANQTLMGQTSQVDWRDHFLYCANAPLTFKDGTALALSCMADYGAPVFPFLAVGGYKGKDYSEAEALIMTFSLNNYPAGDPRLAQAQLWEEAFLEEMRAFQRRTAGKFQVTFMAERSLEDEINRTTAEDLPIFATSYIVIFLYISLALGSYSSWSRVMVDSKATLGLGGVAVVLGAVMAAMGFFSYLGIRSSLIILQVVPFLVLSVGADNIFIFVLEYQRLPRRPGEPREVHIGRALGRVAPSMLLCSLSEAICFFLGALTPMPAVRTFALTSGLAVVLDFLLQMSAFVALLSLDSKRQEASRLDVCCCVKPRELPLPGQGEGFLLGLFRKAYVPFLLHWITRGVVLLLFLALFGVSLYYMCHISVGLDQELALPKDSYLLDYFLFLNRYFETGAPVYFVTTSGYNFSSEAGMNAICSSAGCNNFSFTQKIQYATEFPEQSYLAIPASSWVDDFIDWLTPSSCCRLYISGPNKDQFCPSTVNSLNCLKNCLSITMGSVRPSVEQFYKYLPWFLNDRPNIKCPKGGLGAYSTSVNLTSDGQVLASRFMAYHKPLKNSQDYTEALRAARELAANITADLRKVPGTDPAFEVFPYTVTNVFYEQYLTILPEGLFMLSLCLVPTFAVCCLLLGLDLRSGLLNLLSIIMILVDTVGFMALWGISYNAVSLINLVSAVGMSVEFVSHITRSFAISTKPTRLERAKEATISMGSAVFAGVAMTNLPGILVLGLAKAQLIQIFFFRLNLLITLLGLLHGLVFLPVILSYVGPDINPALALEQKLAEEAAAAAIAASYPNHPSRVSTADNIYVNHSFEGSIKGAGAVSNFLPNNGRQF
The experiment can be described thus: Displacement of [35S](2S,3S,4S,5R,6S)-6-(4-((2S,3R)-3-((S)-3-(4-fluorophenyl)-3-hydroxypropyl)-1-(4-(3-(methylsulfonamido)prop-1-ynyl)phenyl)-4-oxoazetidin-2-yl)phenoxy)-3,4,5-trihydroxytetrahydro-2H-pyran-2-carboxylic acid from NPC1L1 in rhesus monkey enterocyte brush border membrane. (Displacement assays read how much labelled ligand stays bound in the presence of the test substance.)

A short description of experiment [2]: Displacement of [35S](2S,3S,4S,5R,6S)-6-(4-((2S,3R)-3-((S)-3-(4-fluorophenyl)-3-hydroxypropyl)-1-(4-(3-(methylsulfonamido)prop-1-ynyl)phenyl)-4-oxoazetidin-2-yl)phenoxy)-3,4,5-trihydroxytetrahydro-2H-pyran-2-carboxylic acid from NPC1L1 in pig enterocyte brush border membrane. Further details: species or system Sus scrofa.
The nature of experiment [3]: Displacement of [35S](2S,3S,4S,5R,6S)-6-(4-((2S,3R)-3-((S)-3-(4-fluorophenyl)-3-hydroxypropyl)-1-(4-(3-(methylsulfonamido)prop-1-ynyl)phenyl)-4-oxoazetidin-2-yl)phenoxy)-3,4,5-trihydroxytetrahydro-2H-pyran-2-carboxylic acid from NPC1L1 in hamster enterocyte brush border membrane. Further details: species or system Cricetinae.
Experiment [4] can be described thus: Displacement of [35S](2S,3S,4S,5R,6S)-6-(4-((2S,3R)-3-((S)-3-(4-fluorophenyl)-3-hydroxypropyl)-1-(4-(3-(methylsulfonamido)prop-1-ynyl)phenyl)-4-oxoazetidin-2-yl)phenoxy)-3,4,5-trihydroxytetrahydro-2H-pyran-2-carboxylic acid from NPC1L1 in guinea pig enterocyte brush border membrane. Further details: species or system Cavia porcellus.

As to `CS(=O)(=O)NCC#CN1C(=O)[C@H](CC[C@H](O)c2ccc(F)cc2)[C@H]1c1ccc(O[C@@H]2O[C@H](C(=O)O)[C@@H](O)[C@H](O)[C@H]2O)cc1`, the concentration for half-maximal inhibition (IC50) (usually the concentration that gives 50% inhibition) in experiment [1] came out at 0.02 µM; in experiment [2], 0.013 µM; in experiment [3], 0.022 µM; in experiment [4], 0.071 µM.

For `CC(C)(C)c1ccc(C(=O)N2CCC3(CC2)C(=O)N(CC(=O)N2CCCCC2)CN3c2ccccc2)cc1`, the 50% inhibitory concentration (IC50) was 77 µM in experiment [1], above 500 µM in experiment [2], 41 µM in experiment [3] and 470 µM in experiment [4].

On to `O=C(O)[C@H]1O[C@@H](Oc2ccc([C@@H]3[C@@H](CC[C@H](O)c4ccc(F)cc4)C(=O)N3c3ccc(F)cc3)cc2)[C@H](O)[C@@H](O)[C@@H]1O`, for which the IC50 in experiment [1] came to 0.03 µM; in experiment [2], 0.32 µM; in experiment [3], 0.65 µM; in experiment [4] it was 3.3 µM.

Regarding `O=C([C@@H]1C[C@@H](c2ccccc2)CN1C(=O)c1ccccc1)N1CCC2(C=Cc3ccccc32)CC1`, the IC50 was 146 µM in experiment [1], above 500 µM in experiment [2], 62 µM in experiment [3] and 118 µM in experiment [4].
